Test [1] deals with Staphylococcus pseudintermedius MW767056. The following applies: peptide constant at 1/4 × MIC, 1 × 10^5 CFU/ml, triplicate.
The test system of test [2] is S. pseudintermedius MW767056 skin infection. The experiment in a line: Mouse skin infection (abrasion) model. The following applies: topical 50 μl at 6× MIC daily, n = 5; for bacterial counts of infected skin tissue: inoculum 5 × 10^6 CFU, mean.
Test [3] relates to S. pseudintermedius MW767056. The test can be described thus: Bacteriolysis analysis (culture turbidity at 600 nm). The format is cell-based, Staphylococcus pseudintermedius. As to conditions: 4× MIC, result in words.
The next test deals with TNF-α. The test can be described thus: Western blotting of TNF-α in infected mouse skin. The format is in vivo, BALB/c mice. As to conditions: day 1, vs saline-treated group, normalized to β-actin, n = 3. The protocol:
To examine the expression of IL-6 and TNF-α at the protein level, immunoblotting was performed as reported previously ([Tang et al., 2017]). Proteins from dorsal skin tissues were extracted for Western blotting assays. Primary antibodies included anti-IL-6 (1:1,000, Abcam, Waltham, MA, United States) and anti-TNF-α (1:1,000, Abcam, United States). To verify equal sample loading, the membrane was incubated with rabbit polyclonal anti-β-actin antibody (1:1,000, Abcam, United States) as an internal control. Horseradish peroxidase-conjugated goat anti-rabbit IgG (1:5000, Abcam, United States) was used as the secondary antibody. The membranes were exposed under a chemiluminescent imaging analysis system (GE Healthcare Life Science, Danderyd, Sweden). Samples not treated with primary antibodies were considered negative controls. Relative levels of each protein were normalized to those of β-actin in each sample.

Test [4] has as its system S. pseudintermedius MW767056. The test can be described thus: Calcein leakage analysis (membrane permeabilization). The format is cell-based, Staphylococcus pseudintermedius. The following applies: 10× MIC, up to 1 h, triplicate, two independent experiments.
For test [5], the system named is Staphylococcus cohnii MW767053. The following applies: peptide constant at 1/4 × MIC, 1 × 10^5 CFU/ml, triplicate.
The mark [6] stands for this setting: in combination with Allomyrinasin.

Results on 1 compound are retold here after publication PMC8386128, “Evaluation of Short-Chain Antimicrobial Peptides With Combined Antimicrobial and Anti-inflammatory Bioactivities for the Treatment of Zoonotic Skin Pathogens From Canines” (Frontiers in Microbiology, 2021).

Read-outs that look alike come from different tables or passages of the source.

As for `CC1(C)S[C@@H]2[C@H](NC(=O)[C@H](N)c3ccc(O)cc3)C(=O)N2[C@H]1C(=O)O` [Amoxicillin, amoxicillin], the FIC index was 0.281 in test [1] (setting [6]), “indifferent interaction” in test [1] (in combination with Andricin B), 0.3125 in test [5] (setting [6]) and 0.50 in test [5] (in combination with Andricin B). In addition, the “bacterial counts of infected skin tissue” value in test [2] (day 1) was 5.94 log10 CFU/g; in test [2] (day 3), 3.58 log10 CFU/g. In addition, the “bacterial load in the liver” value in test [2] (day 1) was “No bacterial load was detected”. The “S. pseudintermedius infection in the liver” value in test [2] (day 3) is “completely prevented”. The “variation in culture turbidity (OD600) over 10 h” value in test [3] is reported as “not recorded”. For the same compound, the “expression level of TNF-α protein in infected skin” value in the test with TNF-α is reported as “decreased”. In addition, in test [4], the “calcein leakage (decrease in fluorescence intensity)” value is recorded as “no obvious disruptive reaction”.
